SMILES strings stand for the structures.

The source of these data is patent US20210154202A1, “SYNTHESIS OF DENTIMOL, AN ANTIGLAUCOMA DRUG” (Virginia Commonwealth University, priority 2018, published 2021).

Series [1] has as its system rats (cornea, ciliary body, retina). Put plainly: In vivo safety assessment, ocular tolerance and histology after once-daily dosing for seven days. The procedure:
In vivo safety assessment. To assess in vivo ocular tolerance, rats received OTM, timolol, or DenTimol (2×5 μL, 0.5% w/v OTM equivalent) in the right eye once daily for seven days. At the conclusion of the experiment, the rats were euthanized. The eyes were enucleated and immediately fixed in Davidson's solution, and 5 μm sections prepared for histological evaluation.

The next series has as its system NIH 3T3 fibroblasts. In words: Cytotoxicity study, WST-1 cell proliferation assay. The format is cell-based. Conditions: no concentration stated. As for the experimental part:
Cytotoxicity study. NIH 3T3 fibroblasts were seeded in a 96-well plate at 5000 cells per well and allowed 24 h to attach. The cells were maintained in DMEM medium supplemented with 10% serum, streptomycin […] and penicillin (100 U/mL) at 37° C. in 95% air/5% CO2. Upon the removal of the medium, the cells were incubated with fresh DMEM medium (control) or fresh medium containing various amounts of OTM, OTM-PEG, or DenTimol (n=8) for 24 h. Cell viability relative to untreated cells was determined using the WST-1 cell proliferation assay.
A general note: Formazan colour is commonly taken as a measure of viable cells.

A short description of series [2]: Water solubility / hydrophobicity as stated. The format is physicochemical.
The conditions of series [3]: delivered as a topical solution; cited from earlier work.
Series [4] in a line: Ex vivo corneal permeation study, Franz diffusion cells. Type of series: in vitro ADME. To be noted: rabbit cornea, 37° C., 3.7 mM OTM equivalent donor. The procedure: Ex vivo corneal permeation study. Corneal permeability was determined using Franz diffusion cells (PermeGear, Hellertown, Pa.). Corneas were extracted from fresh rabbit eyes and placed immediately into diffusion cells with the endothelial surface facing the acceptor chamber and the epithelial surface facing the donor chamber. The acceptor chamber was filled with 5 mL of glutathione buffered Ringer's solution, and the donor chamber with 100 μL of a solution containing 1 mg of DenTimol (3.7 mM OTM equivalent). For comparison, permeation of OTM and OTM-PEG across the cornea were also tested at the same OTM equivalent concentration. The diffusion cells were placed in a water bath at 37° C. At various time points, 250 μL samples were withdrawn from the acceptor chamber, and drug concentrations were measured using the reverse phase HPLC system.

With `C1CN(c2nsnc2OC[C@@H]2CO2)CCO1` [OTM, (S)-4-[4-(Oxiranylmethoxy)-1,2,5-thiadiazol-3-yl]morpholine], the “Histology (H&E) of cornea, ciliary body and retina after repeated dosing” value in series [1] is “did not alter the structures of the cornea, ciliary body, and retina”. In the series on NIH 3T3 fibroblasts, the “Toxicity of OTM (stated)” value is on record as “non-toxic”. Moreover, the “Water solubility / hydrophobicity” value in series [2] is recorded as “highly hydrophobic”.

With `CC(C)(C)NC[C@H](O)COc1nsnc1N1CCOCC1` [timolol], in series [3], the “Period after a dose within therapeutic concentration window in the anterior chamber” value was 4 to 5 h and the “Share of total drug reaching the target organ with each dose” value was “about 5%”. Also, the “Drug permeated through the cornea in 4 h” value in series [4] stood at 3.5%.
